Source: publication PMC7008132 (European journal of medicinal chemistry, 2019)

How the values were obtained:
HCT 116 cells = assay: FITC-Annexin V/propidium iodide apoptosis analysis; conditions: HCT 116 (p53-wild-type); 72 h; Annexin V/PI flow cytometry
[1] = tested on: p53-wild-type SJSA-1 and U-2 OS cells; conditions: 24 h treatment, nutlin-3a 5 μM positive control
[2] = Stability of compound in solution; format: physicochemical; conditions: while in solution
[3] = biological target: human MDM2 (residues 1–118) (Homo sapiens, UniProt Q00987); assay: Fluorescence polarization; conditions: fluorescence polarization assay; qualitative statement

Row | Structure (SMILES) | MDM2 binding activity in words [3] | further results
1 | CC(C)(C)NC(=O)[C@H](c1c(C(=O)O)[nH]c2cc(Cl)ccc12)N(C=O)Cc1ccc(OCc2ccccc2Br)cc1 [(−)-6m] | – | Induction of apoptosis (HCT 116 cells): induced apoptosis in p53-wild-type HCT 116 cells, comparable to nutlin-3a
2 | COc1ccc(C2=N[C@@H](c3ccc(Cl)cc3)[C@@H](c3ccc(Cl)cc3)N2C(=O)N2CCNC(=O)C2)c(OC(C)C)c1 [Nutlin-3a] | – | Induction of MDM2 and p21 expression [1]: potent induction of MDM2 and p21
3 | CC(C)(C)NC(=O)C(c1c(C(=O)O)[nH]c2cc(Cl)ccc12)N(C=O)Cc1ccc(NCc2ccc(Br)cc2)cc1 (stereo not shown) [compound 8, 3-(2-(tert-butylamino)-1-(N-(4-((4-bromobenzyl)amino)benzyl)formamido)-2-oxoethyl)-6-chloro-1H-indole-2-carboxylic acid] | – | Stability in solution [2]: susceptible to degradation
4 | Cn1c(C(=O)O)c(C(C(=O)NC(C)(C)C)N(C=O)Cc2ccc(OCc3ccccc3Br)cc2)c2ccc(Cl)cc21 (stereo not shown) [compound 9, 3-(1-(N-(4-((2-bromobenzyl)oxy)benzyl)formamido)-2-(tert-butylamino)-2-oxoethyl)-6-chloro-1-methyl-1H-indole-2-carboxylic acid] | total loss of activity | –
5 | CC(C)(C)NC(=O)C(c1ccc(Cl)cc1)N(C=O)Cc1ccc(OCc2ccc(Cl)c(Cl)c2)cc1 (stereo not shown) [compound 10, N-(tert-butyl)-2-(4-chlorophenyl)-2-(N-(4-((3,4-dichlorobenzyl)oxy)benzyl) formamido)acetamide] | no binding | –
6 | CC(C)(C)NC(=O)C(c1cccc(Cl)c1)N(C=O)Cc1ccc(Cl)cc1 (stereo not shown) [compound 11, N-(tert-butyl)-2-(N-(4-chlorobenzyl)formamido)-2-(3-chlorophenyl)acetamide] | no binding | –
7 | O=CN(Cc1ccc(OCc2ccc(F)cc2)cc1)C(C(=O)NC12CC3CC(CC(C3)C1)C2)c1c(C(=O)O)[nH]c2cc(Cl)ccc12 (stereo not shown) [compound 17, 3-(2-((3s,5s,7s)-adamantan-1-ylamino)-1-(N-(4-((4-fluorobenzyl)oxy)benzyl)formamido)-2-oxoethyl)-6-chloro-1H-indole-2-carboxylic acid] | almost in loss of activity | –
